Legend:
[1] = system: Tyrosine-protein kinase ABL1 (Homo sapiens), P00519 [Q252H]; details: Compound concentration 1000.0 nM
[2] = molecular target: Activin receptor type-2A (Homo sapiens) (UniProt P27037); details: Compound concentration 1000.0 nM
[3] = molecular target: Calcium/calmodulin-dependent protein kinase type IV (Homo sapiens) (UniProt Q16566); details: Compound concentration 1000.0 nM
[4] = molecular target: Cyclin-dependent kinase 7 (Homo sapiens) (UniProt P50613); details: Compound concentration 1000.0 nM
[5] = molecular target: Dual specificity protein kinase CLK2 (Homo sapiens) (UniProt P49760); details: Compound concentration 1000.0 nM
[6] = molecular target: Death-associated protein kinase 3 (Homo sapiens) (UniProt O43293); details: Compound concentration 1000.0 nM
[7] = system: Epidermal growth factor receptor (Homo sapiens), P00533 [G719C]; details: Compound concentration 1000.0 nM
[8] = system: Epidermal growth factor receptor (Homo sapiens), P00533 [UNDEFINED MUTATION]; details: Compound concentration 1000.0 nM
[9] = molecular target: Ephrin type-B receptor 1 (Homo sapiens) (UniProt P54762); details: Compound concentration 1000.0 nM
[10] = molecular target: Ephrin type-B receptor 6 (Homo sapiens) (UniProt O15197); details: Compound concentration 1000.0 nM
[11] = molecular target: Serine/threonine-protein kinase/endoribonuclease IRE1 (Homo sapiens) (UniProt O75460); details: Compound concentration 1000.0 nM
[12] = molecular target: Tyrosine-protein kinase Fyn (Homo sapiens) (UniProt P06241); details: Compound concentration 1000.0 nM
[13] = molecular target: Cyclin-G-associated kinase (Homo sapiens) (UniProt O14976); details: Compound concentration 1000.0 nM
[14] = molecular target: Homeodomain-interacting protein kinase 1 (Homo sapiens) (UniProt Q86Z02); details: Compound concentration 1000.0 nM
[15] = molecular target: Leukocyte tyrosine kinase receptor (Homo sapiens) (UniProt P29376); details: Compound concentration 1000.0 nM
[16] = molecular target: Mitogen-activated protein kinase kinase kinase 13 (Homo sapiens) (UniProt O43283); details: Compound concentration 1000.0 nM
[17] = molecular target: Serine/threonine-protein kinase MARK2 (Homo sapiens) (UniProt Q7KZI7); details: Compound concentration 1000.0 nM
[18] = molecular target: Tyrosine-protein kinase Mer (Homo sapiens) (UniProt Q12866); details: Compound concentration 1000.0 nM
[19] = molecular target: Mitogen-activated protein kinase kinase kinase 9 (Homo sapiens) (UniProt P80192); details: Compound concentration 1000.0 nM
[20] = molecular target: Myosin light chain kinase 2, skeletal/cardiac muscle (Homo sapiens) (UniProt Q9H1R3); details: Compound concentration 1000.0 nM
[21] = molecular target: Serine/threonine-protein kinase Nek3 (Homo sapiens) (UniProt P51956); details: Compound concentration 1000.0 nM
[22] = molecular target: Serine/threonine-protein kinase OSR1 (Homo sapiens) (UniProt O95747); details: Compound concentration 1000.0 nM
[23] = molecular target: Mitogen-activated protein kinase 14 (Homo sapiens) (UniProt Q16539); details: Compound concentration 1000.0 nM
[24] = molecular target: Serine/threonine-protein kinase PAK 3 (Homo sapiens) (UniProt O75914); details: Compound concentration 1000.0 nM
[25] = system: Phosphatidylinositol 4,5-bisphosphate 3-kinase catalytic subunit alpha isoform (Homo sapiens), P42336 [H1047Y]; details: Compound concentration 1000.0 nM
[26] = molecular target: cAMP-dependent protein kinase catalytic subunit beta (Homo sapiens) (UniProt P22694); details: Compound concentration 1000.0 nM
[27] = molecular target: Protein kinase C delta type (Homo sapiens) (UniProt Q05655); details: Compound concentration 1000.0 nM
[28] = molecular target: cAMP-dependent protein kinase catalytic subunit PRKX (Homo sapiens) (UniProt P51817); details: Compound concentration 1000.0 nM
[29] = molecular target: Serine/threonine-protein kinase RIO3 (Homo sapiens) (UniProt O14730); details: Compound concentration 1000.0 nM
[30] = molecular target: Dual serine/threonine and tyrosine protein kinase (Homo sapiens) (UniProt Q6XUX3); details: Compound concentration 1000.0 nM
[31] = molecular target: Ribosomal protein S6 kinase beta-1 (Homo sapiens) (UniProt P23443); details: Compound concentration 1000.0 nM
[32] = molecular target: SRSF protein kinase 3 (Homo sapiens) (UniProt Q9UPE1); details: Compound concentration 1000.0 nM
[33] = molecular target: Tyrosine-protein kinase receptor Tie-1 (Homo sapiens) (UniProt P35590); details: Compound concentration 1000.0 nM
[34] = molecular target: NT-3 growth factor receptor (Homo sapiens) (UniProt Q16288); details: Compound concentration 1000.0 nM
[35] = molecular target: Tyrosine-protein kinase receptor TYRO3 (Homo sapiens) (UniProt Q06418); details: Compound concentration 1000.0 nM
[36] = molecular target: Wee1-like protein kinase 2 (Homo sapiens) (UniProt P0C1S8); details: Compound concentration 1000.0 nM
[37] = molecular target: Serine/threonine-protein kinase WNK1 (Homo sapiens) (UniProt Q9H4A3); details: Compound concentration 1000.0 nM
[38] = molecular target: Serine/threonine-protein kinase WNK2 (Homo sapiens) (UniProt Q9Y3S1); details: Compound concentration 1000.0 nM
[39] = molecular target: 5-hydroxytryptamine receptor 1D (Homo sapiens) (UniProt P28221); details: Compound concentration 10.0 uM
[40] = molecular target: D(1B) dopamine receptor (Homo sapiens) (UniProt P21918); details: Compound concentration 10.0 uM
[41] = molecular target: Sodium-dependent dopamine transporter (Homo sapiens) (UniProt Q01959); details: Compound concentration 10.0 uM
[42] = molecular target: Alpha-2A adrenergic receptor (Homo sapiens) (UniProt P08913); details: Compound concentration 10.0 uM
[43] = molecular target: Beta-1 adrenergic receptor (Homo sapiens) (UniProt P08588); details: Compound concentration 10.0 uM
[44] = molecular target: Beta-2 adrenergic receptor (Homo sapiens) (UniProt P07550); details: Compound concentration 10.0 uM
[45] = molecular target: Sigma non-opioid intracellular receptor 1 (Homo sapiens) (UniProt Q99720); details: Compound concentration 10.0 uM

Dual serine/threonine and tyrosine protein kinase (Homo sapiens), sequence (Q6XUX3 whole entry): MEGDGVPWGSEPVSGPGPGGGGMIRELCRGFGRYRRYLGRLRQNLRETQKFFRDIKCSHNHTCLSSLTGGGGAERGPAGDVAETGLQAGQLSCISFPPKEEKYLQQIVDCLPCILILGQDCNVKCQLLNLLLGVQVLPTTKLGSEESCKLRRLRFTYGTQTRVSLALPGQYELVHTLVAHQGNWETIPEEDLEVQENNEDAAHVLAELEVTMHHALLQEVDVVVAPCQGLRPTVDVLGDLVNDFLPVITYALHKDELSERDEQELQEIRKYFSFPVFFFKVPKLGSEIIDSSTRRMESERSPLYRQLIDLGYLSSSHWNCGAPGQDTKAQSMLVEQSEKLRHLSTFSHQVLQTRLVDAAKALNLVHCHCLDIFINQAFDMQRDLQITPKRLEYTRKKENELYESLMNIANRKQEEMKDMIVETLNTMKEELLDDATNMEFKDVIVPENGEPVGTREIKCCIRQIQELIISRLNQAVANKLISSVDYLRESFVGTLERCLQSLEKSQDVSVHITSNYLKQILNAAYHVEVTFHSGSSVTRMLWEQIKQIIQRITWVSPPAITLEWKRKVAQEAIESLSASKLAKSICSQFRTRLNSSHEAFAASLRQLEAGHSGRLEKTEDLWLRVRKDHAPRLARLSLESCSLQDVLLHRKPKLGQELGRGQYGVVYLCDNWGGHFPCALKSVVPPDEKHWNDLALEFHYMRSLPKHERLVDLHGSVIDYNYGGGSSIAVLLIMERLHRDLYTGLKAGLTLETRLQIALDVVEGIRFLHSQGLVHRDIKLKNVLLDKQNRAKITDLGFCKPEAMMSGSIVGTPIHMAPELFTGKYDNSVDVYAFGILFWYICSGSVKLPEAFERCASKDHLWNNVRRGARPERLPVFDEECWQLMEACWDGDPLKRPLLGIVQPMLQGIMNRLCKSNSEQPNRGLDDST
Tyrosine-protein kinase Fyn (Homo sapiens), sequence (P06241 2-537 limits assumed): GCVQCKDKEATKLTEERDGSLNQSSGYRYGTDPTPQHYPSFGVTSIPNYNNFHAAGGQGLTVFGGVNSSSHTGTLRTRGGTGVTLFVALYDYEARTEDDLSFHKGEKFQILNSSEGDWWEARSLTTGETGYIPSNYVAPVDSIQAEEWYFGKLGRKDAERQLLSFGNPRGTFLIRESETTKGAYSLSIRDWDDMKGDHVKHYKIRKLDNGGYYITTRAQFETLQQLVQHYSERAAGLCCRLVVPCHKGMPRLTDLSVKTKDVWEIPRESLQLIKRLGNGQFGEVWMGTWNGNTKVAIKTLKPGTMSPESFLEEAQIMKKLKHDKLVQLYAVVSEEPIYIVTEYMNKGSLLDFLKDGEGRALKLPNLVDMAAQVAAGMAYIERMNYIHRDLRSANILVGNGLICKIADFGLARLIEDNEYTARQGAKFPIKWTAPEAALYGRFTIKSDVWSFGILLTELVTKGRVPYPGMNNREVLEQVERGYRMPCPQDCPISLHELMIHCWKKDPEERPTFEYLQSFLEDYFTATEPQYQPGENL
NT-3 growth factor receptor (Homo sapiens), sequence (Q16288 32-839 limits assumed): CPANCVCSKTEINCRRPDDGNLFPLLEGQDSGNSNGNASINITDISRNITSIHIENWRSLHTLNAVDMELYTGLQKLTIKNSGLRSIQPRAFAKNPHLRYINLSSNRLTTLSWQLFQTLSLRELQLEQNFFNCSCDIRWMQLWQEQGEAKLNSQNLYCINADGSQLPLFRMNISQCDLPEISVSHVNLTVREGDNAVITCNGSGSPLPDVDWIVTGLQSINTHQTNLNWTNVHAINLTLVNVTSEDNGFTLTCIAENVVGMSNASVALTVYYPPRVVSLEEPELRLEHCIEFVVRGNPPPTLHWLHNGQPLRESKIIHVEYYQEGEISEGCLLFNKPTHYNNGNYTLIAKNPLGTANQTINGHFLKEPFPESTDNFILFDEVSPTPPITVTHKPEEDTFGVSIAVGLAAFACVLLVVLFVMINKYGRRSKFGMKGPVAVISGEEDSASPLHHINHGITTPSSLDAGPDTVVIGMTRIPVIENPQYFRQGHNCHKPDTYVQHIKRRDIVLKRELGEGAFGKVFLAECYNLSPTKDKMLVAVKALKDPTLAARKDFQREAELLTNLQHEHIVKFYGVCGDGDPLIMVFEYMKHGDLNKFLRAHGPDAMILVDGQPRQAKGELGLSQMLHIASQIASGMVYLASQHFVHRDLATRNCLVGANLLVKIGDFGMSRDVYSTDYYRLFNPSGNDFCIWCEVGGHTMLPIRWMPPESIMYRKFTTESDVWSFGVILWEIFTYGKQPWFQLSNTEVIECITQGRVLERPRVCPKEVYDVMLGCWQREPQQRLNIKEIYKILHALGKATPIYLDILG
Activin receptor type-2A (Homo sapiens), sequence (P27037 whole entry): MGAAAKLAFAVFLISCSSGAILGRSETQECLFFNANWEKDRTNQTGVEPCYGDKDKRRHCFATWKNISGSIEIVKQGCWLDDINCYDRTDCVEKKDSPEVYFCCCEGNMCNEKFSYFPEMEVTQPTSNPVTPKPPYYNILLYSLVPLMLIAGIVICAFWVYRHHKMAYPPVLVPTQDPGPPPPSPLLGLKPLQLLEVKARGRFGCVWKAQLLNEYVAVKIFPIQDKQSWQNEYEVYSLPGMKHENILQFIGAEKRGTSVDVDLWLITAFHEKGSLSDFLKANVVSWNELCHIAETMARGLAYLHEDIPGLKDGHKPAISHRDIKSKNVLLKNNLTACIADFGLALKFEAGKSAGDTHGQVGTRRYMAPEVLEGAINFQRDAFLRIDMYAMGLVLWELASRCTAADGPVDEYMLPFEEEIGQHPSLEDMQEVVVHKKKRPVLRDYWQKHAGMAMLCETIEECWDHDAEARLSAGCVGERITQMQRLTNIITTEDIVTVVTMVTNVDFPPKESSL
Serine/threonine-protein kinase MARK2 (Homo sapiens), sequence (Q7KZI7 whole entry): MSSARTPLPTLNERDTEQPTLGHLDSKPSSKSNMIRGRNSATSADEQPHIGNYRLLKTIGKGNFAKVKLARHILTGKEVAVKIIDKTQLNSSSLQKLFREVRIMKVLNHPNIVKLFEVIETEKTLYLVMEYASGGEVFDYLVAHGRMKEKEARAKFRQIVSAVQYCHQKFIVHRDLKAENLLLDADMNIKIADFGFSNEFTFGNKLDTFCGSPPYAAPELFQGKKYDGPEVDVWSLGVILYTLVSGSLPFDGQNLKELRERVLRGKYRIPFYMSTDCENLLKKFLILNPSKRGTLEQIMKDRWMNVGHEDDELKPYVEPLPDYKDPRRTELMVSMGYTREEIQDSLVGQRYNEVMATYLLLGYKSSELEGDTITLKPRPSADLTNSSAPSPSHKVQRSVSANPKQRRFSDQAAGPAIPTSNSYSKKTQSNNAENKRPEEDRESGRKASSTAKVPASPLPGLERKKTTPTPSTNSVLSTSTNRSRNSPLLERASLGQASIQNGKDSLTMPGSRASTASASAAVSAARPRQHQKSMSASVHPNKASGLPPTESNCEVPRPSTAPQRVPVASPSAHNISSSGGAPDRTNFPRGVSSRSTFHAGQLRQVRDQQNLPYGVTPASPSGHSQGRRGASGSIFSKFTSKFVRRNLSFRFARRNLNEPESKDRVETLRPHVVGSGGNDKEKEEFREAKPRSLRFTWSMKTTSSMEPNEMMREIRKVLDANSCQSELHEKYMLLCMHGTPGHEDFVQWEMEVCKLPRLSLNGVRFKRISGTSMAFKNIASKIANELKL
Ribosomal protein S6 kinase beta-1 (Homo sapiens), sequence (P23443 whole entry, looked up): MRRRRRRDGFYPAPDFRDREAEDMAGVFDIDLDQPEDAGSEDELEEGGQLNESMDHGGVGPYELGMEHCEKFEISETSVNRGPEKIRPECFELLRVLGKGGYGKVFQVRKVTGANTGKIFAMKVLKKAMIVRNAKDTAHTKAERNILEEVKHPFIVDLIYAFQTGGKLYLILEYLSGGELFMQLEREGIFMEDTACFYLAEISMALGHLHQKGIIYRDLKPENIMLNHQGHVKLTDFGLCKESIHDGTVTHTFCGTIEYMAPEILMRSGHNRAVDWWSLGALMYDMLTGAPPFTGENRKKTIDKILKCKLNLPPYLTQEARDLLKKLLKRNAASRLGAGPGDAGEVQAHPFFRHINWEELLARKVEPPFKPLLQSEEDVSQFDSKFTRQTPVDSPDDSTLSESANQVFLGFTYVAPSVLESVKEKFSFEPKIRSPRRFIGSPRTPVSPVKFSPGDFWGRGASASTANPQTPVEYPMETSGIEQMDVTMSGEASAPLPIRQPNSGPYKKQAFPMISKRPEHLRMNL
Alpha-2A adrenergic receptor (Homo sapiens), sequence (P08913 whole entry): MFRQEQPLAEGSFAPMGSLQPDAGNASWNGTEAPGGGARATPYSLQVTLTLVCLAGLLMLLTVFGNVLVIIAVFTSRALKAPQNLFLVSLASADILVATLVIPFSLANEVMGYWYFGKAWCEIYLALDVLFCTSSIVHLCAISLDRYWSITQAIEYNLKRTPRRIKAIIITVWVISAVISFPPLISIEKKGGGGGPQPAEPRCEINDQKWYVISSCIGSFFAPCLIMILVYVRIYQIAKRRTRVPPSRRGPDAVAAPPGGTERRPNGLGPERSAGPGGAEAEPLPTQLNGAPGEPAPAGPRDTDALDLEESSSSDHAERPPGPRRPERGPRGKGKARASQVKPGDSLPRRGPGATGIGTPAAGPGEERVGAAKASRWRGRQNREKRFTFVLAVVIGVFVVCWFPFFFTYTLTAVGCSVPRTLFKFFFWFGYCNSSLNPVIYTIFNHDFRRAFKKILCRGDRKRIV
Mitogen-activated protein kinase 14 (Homo sapiens), sequence (Q16539 whole entry): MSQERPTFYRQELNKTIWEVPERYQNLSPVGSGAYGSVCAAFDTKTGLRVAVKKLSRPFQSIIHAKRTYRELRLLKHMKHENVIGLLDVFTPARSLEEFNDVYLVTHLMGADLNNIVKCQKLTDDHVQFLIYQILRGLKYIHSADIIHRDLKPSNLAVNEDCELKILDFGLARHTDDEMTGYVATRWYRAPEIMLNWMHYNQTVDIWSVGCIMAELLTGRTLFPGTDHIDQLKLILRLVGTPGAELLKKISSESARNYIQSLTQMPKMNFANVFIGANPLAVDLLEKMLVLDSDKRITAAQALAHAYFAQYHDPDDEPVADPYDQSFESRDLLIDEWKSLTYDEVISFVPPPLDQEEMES

Cc1c(NC(=O)c2cc(C(N)=O)nc3cc(F)ccc23)c(C(F)(F)F)nn1Cc1ccc(C(C)(C)C)cc1 [BAY-588]
inactive: residual activity [1] 84% | residual activity [2] 100% | residual activity [3] 90% | residual activity [4] 100% | residual activity [5] 76% | residual activity [6] 76% | residual activity [7] 71% | residual activity [8] 96% | residual activity [9] 86% | residual activity [10] 100% | residual activity [11] 89% | residual activity [12] 100% | residual activity [13] 98% | residual activity [14] 92% | residual activity [15] 83% | residual activity [16] 100% | residual activity [17] 100% | residual activity [18] 86% | residual activity [19] 100% | residual activity [20] 87% | residual activity [21] 100% | residual activity [22] 100% | residual activity [23] 100% | residual activity [24] 100% | residual activity [25] 89% | residual activity [26] 100% | residual activity [27] 100% | residual activity [28] 94% | residual activity [29] 97% | residual activity [30] 89% | residual activity [31] 100% | residual activity [32] 100% | residual activity [33] 100% | residual activity [34] 100% | residual activity [35] 100% | residual activity [36] 96% | residual activity [37] 100% | residual activity [38] 100% | inhibition [39] -4.9% | inhibition [40] 2.96% | inhibition [41] 14.7% | inhibition [42] 23.1% | inhibition [43] 21.2% | inhibition [44] 24.1% | inhibition [45] 6.28%

Cc1c(NC(=O)c2cc(C(N)=O)nc3cc(F)ccc23)c(C(F)(F)F)nn1Cc1ccc(C#N)cc1 [BAY-876]
inactive: residual activity [1] 100% | residual activity [2] 97% | residual activity [3] 76% | residual activity [4] 52% | residual activity [5] 89% | residual activity [6] 89% | residual activity [7] 83% | residual activity [8] 61% | residual activity [9] 66% | residual activity [10] 75% | residual activity [11] 78% | residual activity [12] 94% | residual activity [13] 95% | residual activity [14] 73% | residual activity [15] 82% | residual activity [16] 84% | residual activity [17] 97% | residual activity [18] 100% | residual activity [19] 100% | residual activity [20] 90% | residual activity [21] 74% | residual activity [22] 67% | residual activity [23] 91% | residual activity [24] 76% | residual activity [25] 86% | residual activity [26] 93% | residual activity [27] 95% | residual activity [28] 92% | residual activity [29] 75% | residual activity [30] 78% | residual activity [31] 80% | residual activity [32] 100% | residual activity [33] 81% | residual activity [34] 69% | residual activity [35] 81% | residual activity [36] 100% | residual activity [37] 80% | residual activity [38] 87% | inhibition [39] 6.11% | inhibition [40] -0.829% | inhibition [41] 8.22% | inhibition [42] 0.0425% | inhibition [43] 28.5% | inhibition [44] 21.7% | inhibition [45] -2.5%
